How the values were obtained:
Type in all cases: ADME, organism-based, Macaca fascicularis
[1] = Drug concentration in cynomolgus monkey plasma at 1 mg/kg, po after 8 hrs
[2] = Cmax in cynomolgus monkey at 0.3 to 1 mg/kg, po; design: route po; settings: in vivo, dose 0.3-1 mg/kg
[3] = Tmax in cynomolgus monkey at 0.3 to 1 mg/kg, po; settings: in vivo, dose 0.3-1 mg/kg
[4] = Half life in cynomolgus monkey at 0.3 to 1 mg/kg, po; settings: in vivo, dose 0.3-1 mg/kg
[5] = AUC(0 to infinity) in cynomolgus monkey at 0.3 to 1 mg/kg, po; design: route po; settings: in vivo, dose 0.3-1 mg/kg
[6] = MRT in cynomolgus monkey at 0.3 to 1 mg/kg, po; settings: in vivo, dose 0.3-1 mg/kg
[7] = Cmax in cynomolgus monkey at 0.3 mg/kg, po; design: dose 0.3 mg/kg, route po; settings: in vivo
[8] = Drug concentration in cynomolgus monkey plasma at 0.3 mg/kg, po after 8 hrs
[9] = Tmax in cynomolgus monkey at 0.3 mg/kg, po; settings: in vivo
[10] = Half life in cynomolgus monkey at 0.3 mg/kg, po; settings: in vivo
[11] = AUC(0 to infinity) in cynomolgus monkey at 0.3 mg/kg, po; design: time infinity, dose 0.3 mg/kg, route po; settings: in vivo
[12] = MRT in cynomolgus monkey at 0.3 mg/kg, po; settings: in vivo
[13] = Drug concentration in plasma of cynomolgus monkey at 30 mg/kg, po after 4 hrs
[14] = Drug concentration in plasma of cynomolgus monkey at 30 mg/kg, po after 6 hrs
[15] = Drug concentration in plasma of cynomolgus monkey at 30 mg/kg, po after 8 hrs

- concentration at 8 h [1]: 2580 ng/mL
- Cmax [2]: 6960 ng/mL
- Tmax [3]: 2.7 h
- half-life [4]: 3.1 h
- AUC(0-inf) [5]: 53700 ng·h/mL
- MRT [6]: 6 h
- Cmax [7]: 1370 ng/mL
- concentration at 8 h [8]: 403 ng/mL
- Tmax [9]: 3.3 h
- half-life [10]: 3.3 h
- AUC(0-inf) [11]: 10200 ng·h/mL
- MRT [12]: 5.4 h
- concentration at 4 h [13]: 332 µM
- concentration at 6 h [14]: 233 µM
- concentration at 8 h [15]: 177 µM
Compound: Cc1ccc(-c2nc(=O)o[nH]2)c(-c2ccc([C@@H](C)N(CC3CC3)c3nc(C(=O)NS(=O)(=O)C4CC4)c(C4CC4)s3)cc2)c1

Source: ChEMBL document CHEMBL5154705, “Discovery and mechanistic study of thiazole-4-acylsulfonamide derivatives as potent and orally active ChemR23 inhibitors with a long-acting effect in cynomolgus monkeys” (Bioorg Med Chem, 2022)
